The text below walks through data of patent US20250195487A1, “FORMULATIONS OF A CSF-1R INHIBITOR” (Deciphera Pharmaceuticals, LLC, priority 2023, published 2025).

Data set [1] in a line: Hygroscopic behavior test by dynamic vapor sorption (DVS). Format: physicochemical. The following applies: for hygroscopic property, in words: dependence on relative humidity; for hygroscopic weight gain: 25° C., DVS. An excerpt:
The experimental method for characterizing the acid salt of the crystalline compound of the formula (I) by using dynamic vapor sorption (DVS) comprises the steps of putting a small amount of powder of the acid salt of the crystalline compound of the formula (I) in a precision sample tray in coordination with the instrument, and then sending to the instrument for testing after loading the samples. The model of all the instruments used in the dynamic vapor sorption in the present invention is DVS Intrinsic, the experimental parameters are set to that nitrogen is used as the carrier gas, the constant temperature is set to 25° C., the mass percent change rate per unit time (dm/dt) is equal to 0.01%/min as the determination criteria to achieve balance, the program humidity change cycle is set to that the initial relative humidity is 0%, the relative humidity at the end point is 90%, cycle is set to twice, and every 10% R.H. changes a step.
The inventors of the present invention measured the hygroscopic weight gain results (hygroscopic weight gain/pre-hygroscopic weight*100%) of various crystalline forms at each relative humidity by using the dynamic vapor sorption method, the hygroscopicity of different crystalline compounds was evaluated, and the results obtained were as follows: […]

Data set [2] can be described thus: Solubility determination in deionized water. In kind it is physicochemical. The settings on record: ultrasonic treatment; for Solubility S: about 2 mg sample.

Where a name gives a salt, the structure may show the parent alone.

Turning to `Cc1nc(NC(=O)N2CCC(C)(C)C2=O)ccc1Oc1ccnc(-c2cnn(C)c2)c1` [Hydrochloride crystalline form I], the “hygroscopic property, in words” value in data set [1] is “when the relative humidity was increased to 90%, the hygroscopicity of the crystal was increased significantly”. Besides, the hygroscopic weight gain is given as 0.00% in data set [1] (relative humidity 0.0 %); 0.13% in data set [1] (relative humidity 10.0 %); 0.24% in data set [1] (relative humidity 20.0 %); 0.34% in data set [1] (relative humidity 30.0 %); 0.42% in data set [1] (relative humidity 40.0 %); 0.52% in data set [1] (relative humidity 50.0 %). Further, the hygroscopic weight gain in data set [1] (relative humidity 60.0 %) is recorded as 0.63%; in data set [1] (relative humidity 70.0 %), 0.81%; in data set [1] (relative humidity 80.0 %), 1.37%; in data set [1] (relative humidity 90.0 %), 19.40%. For the same compound, the “hygroscopic weight gain of the crystal” value in data set [1] (relative humidity less than 80%) is recorded as “less than 1%”. Further, in data set [2], the “Dissolution Phenomenon” value was “Settled solution”. The “Solubility S” value in data set [2] was “S > 20 mg/mL”.

Take `Cc1nc(NC(=O)N2CCC(C)(C)C2=O)ccc1Oc1ccnc(-c2cnn(C)c2)c1` [Mesylate crystalline form II]: the “hygroscopic property, in words” value in data set [1] is given as “significantly increased when the relative humidity is increased to 70%”. For the same compound, the hygroscopic weight gain in data set [1] (relative humidity 0.0 %) was 0.00%; in data set [1] (relative humidity 10.0 %), 0.11%; in data set [1] (relative humidity 20.0 %), 0.18%; in data set [1] (relative humidity 30.0 %), 0.20%; in data set [1] (relative humidity 40.0 %) it was 0.24%; in data set [1] (relative humidity 50.0 %), 0.31%. In addition, the hygroscopic weight gain in data set [1] (relative humidity 60.0 %) was determined as 0.88%; in data set [1] (relative humidity 70.0 %), 8.93%; in data set [1] (relative humidity 80.0 %), 12.44%; in data set [1] (relative humidity 90.0 %) it was 23.15%. Further, the “Dissolution Phenomenon” value in data set [2] is given as “Settled solution”. Also, the “Solubility S” value in data set [2] is “S > 20 mg/mL”.

Regarding `Cc1nc(NC(=O)N2CCC(C)(C)C2=O)ccc1Oc1ccnc(-c2cnn(C)c2)c1` [Sulfate crystalline form I], in data set [2], the “Dissolution Phenomenon” value is “Settled solution” and the “Solubility S” value was “S > 20 mg/mL”.

For the compound `Cc1nc(NC(=O)N2CCC(C)(C)C2=O)ccc1Oc1ccnc(-c2cnn(C)c2)c1` [Fumarate crystalline form I], in data set [2], the “Dissolution Phenomenon” value is given as “Settled solution” and the “Solubility S” value is listed as “S > 20 mg/mL”.

In the case of `Cc1nc(NC(=O)N2CCC(C)(C)C2=O)ccc1Oc1ccnc(-c2cnn(C)c2)c1` [Phosphate crystalline form I], in data set [1], the “hygroscopic property, in words” value is “remains less hygroscopicity regardless of the ambient relative humidity”. In addition, the hygroscopic weight gain in data set [1] (relative humidity 0.0 %) is recorded as 0.02%; in data set [1] (relative humidity 10.0 %) it was 1.19%; in data set [1] (relative humidity 20.0 %) it was 1.86%; in data set [1] (relative humidity 30.0 %), 2.32%; in data set [1] (relative humidity 40.0 %) it was 2.78%; in data set [1] (relative humidity 50.0 %), 3.37%. Further, the hygroscopic weight gain in data set [1] (relative humidity 60.0 %) is listed as 3.97%; in data set [1] (relative humidity 70.0 %) it was 4.66%; in data set [1] (relative humidity 80.0 %), 5.46%; in data set [1] (relative humidity 90.0 %), 6.383%. For the same compound, the “Dissolution Phenomenon” value in data set [2] is “Settled solution”. In addition, the “Solubility S” value in data set [2] is “S > 20 mg/mL”.

Regarding `Cc1nc(NC(=O)N2CCC(C)(C)C2=O)ccc1Oc1ccnc(-c2cnn(C)c2)c1` [Free compound], in data set [2], the “Dissolution Phenomenon” value is on record as “Non-settling” and the “Solubility S” value is “S < 1.5 mg/mL”.

In the case of `Cc1nc(NC(=O)N2CCC(C)(C)C2=O)ccc1Oc1ccnc(-c2cnn(C)c2)c1` [Citrate crystalline form I], in data set [2], the “Dissolution Phenomenon” value is listed as “Settled solution” and the “Solubility S” value is listed as “S > 20 mg/mL”.

Regarding `Cc1nc(NC(=O)N2CCC(C)(C)C2=O)ccc1Oc1ccnc(-c2cnn(C)c2)c1` [Malate crystalline form I], in data set [2], the “Dissolution Phenomenon” value is recorded as “Settled solution” and the “Solubility S” value is listed as “S > 20 mg/mL”.

`Cc1nc(NC(=O)N2CCC(C)(C)C2=O)ccc1Oc1ccnc(-c2cnn(C)c2)c1` [Tartrate crystalline form I]: in data set [1], the “hygroscopic property, in words” value is on record as “a good linear relationship is formed”. Besides, the hygroscopic weight gain in data set [1] (relative humidity 0.0 %) was found to be 0.00%; in data set [1] (relative humidity 10.0 %) it was 0.83%; in data set [1] (relative humidity 20.0 %), 1.79%; in data set [1] (relative humidity 30.0 %), 2.42%; in data set [1] (relative humidity 40.0 %), 2.88%; in data set [1] (relative humidity 50.0 %) it was 3.32%. For the same compound, the hygroscopic weight gain is listed as 3.77% in data set [1] (relative humidity 60.0 %), 4.44% in data set [1] (relative humidity 70.0 %), 5.17% in data set [1] (relative humidity 80.0 %) and 10.61% in data set [1] (relative humidity 90.0 %). Moreover, the “Dissolution Phenomenon” value in data set [2] was “Settled solution”. Also, the “Solubility S” value in data set [2] was “S > 20 mg/mL”.
